Laboratory results reported in US9580416B2, “Inhibitors of Bruton's tyrosine kinase” (PHARMACYCLICS LLC, priority 2014, dated 2017).

Target: Btk (Homo sapiens, UniProt Q06187)
Experiment: Btk kinase activity, TR-FRET assay
Type: biochemical
Settings: read-out: Btk (IC50)
Method: Btk kinase activity is determined using a time-resolved fluorescence resonance energy transfer (TR-FRET) methodology. Measurements are performed in a reaction volume of 50 μL using 96-well assay plates. Kinase enzyme, inhibitor, ATP (at the Km for the kinase), and 1 […] (Biotin-AVLESEEELYSSARQ-NH2) are incubated in a reaction buffer composed of 20 mM Tris, 50 mM NaCl, MgCl2 (5-25 mM depending on the kinase), MnCl2 (0-10 mM), 1 mM DTT, 0.1 mM EDTA, 0.01% bovine serum albumin, 0.005% Tween-20, and 10% DMSO at pH 7.4 for one hour. The reaction is quenched by the addition of 1.2 equivalents of EDTA (relative to divalent cation) in 25 μL of 1× Lance buffer (Perkin-Elmer). Streptavidin-APC (Perkin-Elmer) and Eu-labeled p-Tyr100 antibody (Perkin-Elmer) in 1× Lance buffer are added in a 25 μL volume to give final concentrations of 100 nM and 2.5 nM, respectively, and the mixture is allowed to incubate for one hour. The TR-FRET signal is measured on a multimode plate reader with an excitation wavelength (λEx) of 330 nm and detection wavelengths (λEm) of 615 and 665 nm. Activity is determined by the ratio of the fluorescence at 665 nm to that at 615 nm. For each compound, enzyme activity is measured at various concentrations of compound. Negative control reactions are performed in the absence of inhibitor in replicates of six, and two no-enzyme controls are used to determine baseline fluorescence levels. Inhibition constants, Ki(app), ware obtained using the program BatchKi (Kuzmic et al. (2000), Anal. Biochem. 286:45-50). IC50s are obtained according to the equation: IC50={Ki(app)/(1+[ATP]/Km^ATP)}+[E]total/2;
For all kinases, [ATP]=Km^ATP, [Btk]total=0.5 nM and [Lck]total=6 nM.

Btk, sequence (Q06187 whole entry): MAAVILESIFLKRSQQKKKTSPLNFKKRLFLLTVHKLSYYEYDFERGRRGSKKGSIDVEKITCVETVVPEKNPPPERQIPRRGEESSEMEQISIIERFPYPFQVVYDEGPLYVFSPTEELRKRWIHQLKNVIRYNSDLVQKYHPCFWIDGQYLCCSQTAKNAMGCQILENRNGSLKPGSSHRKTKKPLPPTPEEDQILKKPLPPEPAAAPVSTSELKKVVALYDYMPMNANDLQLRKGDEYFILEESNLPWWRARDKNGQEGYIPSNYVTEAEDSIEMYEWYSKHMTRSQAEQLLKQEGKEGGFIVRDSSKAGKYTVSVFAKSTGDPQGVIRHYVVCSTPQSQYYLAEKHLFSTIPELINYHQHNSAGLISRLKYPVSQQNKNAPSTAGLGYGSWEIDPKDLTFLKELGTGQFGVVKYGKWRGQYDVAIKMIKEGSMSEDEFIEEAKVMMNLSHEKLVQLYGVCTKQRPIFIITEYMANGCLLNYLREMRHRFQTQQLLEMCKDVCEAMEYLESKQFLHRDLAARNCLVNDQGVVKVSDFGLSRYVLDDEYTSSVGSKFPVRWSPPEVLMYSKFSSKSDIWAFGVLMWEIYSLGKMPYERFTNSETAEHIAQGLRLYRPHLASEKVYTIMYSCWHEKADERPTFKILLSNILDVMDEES

Cc1nnc(NC(=O)c2ccc(Oc3ccnc4[nH]nc(N[C@@H]5CCCN(C(=O)/C=C/CN(C)C6CC6)C5)c34)cc2)s1 [compound 209, 4-[(3-{[(3R)-1-[(2E)-4-[cyclopropyl(methyl)amino]but-2-enoyl]piperidin-3-yl]amino}-1H-pyrazolo[3,4-b]pyridin-4-yl)oxy]-N-(5-methyl-1,3,4-thiadiazol-2-yl)benzamide]
IC50: > 10000 nM

C=CC(=O)N1CCC[C@@H](Nc2n[nH]c3nccc(Oc4ccc(-c5nc6ncccc6o5)cc4)c23)C1 [compound 213, 1-[(3R)-3-{[4-(4-{[1,3]oxazolo[4,5-b]pyridin-2-yl}phenoxy)-1H-pyrazolo[3,4-b]pyridin-3-yl]amino}piperidin-1-yl]prop-2-en-1-one]
IC50: 100 to 1000 nM

CCC(=O)N1CCC[C@@H](N(C(=O)CC)c2n[nH]c3ncnc(Oc4ccc(Oc5ccccc5)cc4)c23)C1 [compound 52]
IC50: 100 to 1000 nM

CCNC(=O)Nc1ccc(Oc2ccnc3[nH]nc(N[C@@H]4CCCN(C(=O)/C=C/CN(C)C5CC5)C4)c23)cc1 [compound 136]
IC50: > 10000 nM

C=CC(=O)N1CCC(CNc2n[nH]c3nccc(Oc4ccc(Oc5ccccc5)cc4)c23)CC1 [compound 266, 1-(4-((4-(4-phenoxyphenoxy)-1H-pyrazolo[3,4-b]pyridin-3-ylamino)methyl)piperidin-1-yl)prop-2-en-1-one]
IC50: < 100 nM

CC#CC(=O)N1CCC[C@@H](Nc2n[nH]c3nccc(Oc4ccc(-c5nc6ncccc6o5)cc4)c23)C1 [compound 170]
IC50: 100 to 1000 nM

c1ccc(Oc2ccc(Oc3ccnc4[nH]nc(NC5CCNCC5)c34)cc2)cc1 [compound 261]
IC50: < 100 nM

CN(C/C=C/C(=O)N1CCC[C@@H](Nc2n[nH]c3nccc(Oc4ccc(NC(=O)Nc5cc(C(F)(F)F)ccn5)cc4)c23)C1)C1CC1 [compound 214, 3-{4-[(3-{[(3R)-1-[(2E)-4-[cyclopropyl(methyl)amino]but-2-enoyl]piperidin-3-yl]amino}-1H-pyrazolo[3,4-b]pyridin-4-yl)oxy]phenyl}-1-[4-(trifluoromethyl)pyridin-2-yl]urea]
IC50: 100 to 1000 nM

Cc1cc(NC(=O)c2cccc(Oc3ccnc4[nH]nc(N[C@@H]5CCNC5)c34)c2)ccc1C(C)C [compound 249, (R)—N-(4-isopropyl-3-methylphenyl)-3-(3-(pyrrolidin-3-ylamino)-1H-pyrazolo[3,4-b]pyridin-4-yloxy)benzamide]
IC50: 100 to 1000 nM

CN(C/C=C/C(=O)N1CCC[C@@H](Nc2n[nH]c3nccc(Oc4ccc(C(=O)Nc5cc(C(F)(F)F)ccn5)cc4)c23)C1)C1CC1 [compound 212, 4-[(3-{[(3R)-1-[(2E)-4-[cyclopropyl(methyl)amino]but-2-enoyl]piperidin-3-yl]amino}-1H-pyrazolo[3,4-b]pyridin-4-yl)oxy]-N-[4-(trifluoromethyl)pyridin-2-yl]benzamide]
IC50: < 100 nM

Cc1cc(NC(=O)c2cccc(Nc3ccnc4[nH]nc(O[C@@H]5CCCNC5)c34)c2)ccc1C(C)C [compound 259, (R)—N-(4-isopropyl-3-methylphenyl)-3-(3-(piperidin-3-yloxy)-1H-pyrazolo[3,4-b]pyridin-4-ylamino)benzamide]
IC50: 100 to 1000 nM

C=CC(=O)N1CCC(Nc2n[nH]c3nccc(Oc4ccc(Oc5ccccc5)cc4)c23)CC1 [compound 265, 1-(4-(4-(4-phenoxyphenoxy)-1H-pyrazolo[3,4-b]pyridin-3-ylamino)piperidin-1-yl)prop-2-en-1-one]
IC50: < 100 nM

CN(C/C=C/C(=O)N1CC[C@@H](N2C(=O)CN(c3ccc(Oc4ccccc4)cc3)c3ccnc4[nH]nc2c34)C1)C1CC1 [compound 238]
IC50: 100 to 1000 nM

c1ccc(Oc2ccc(Oc3ccnc4[nH]nc(NC[C@H]5CCNC5)c34)cc2)cc1 [compound 264, (S)-4-(4-phenoxyphenoxy)-N-(pyrrolidin-3-ylmethyl)-1H-pyrazolo[3,4-b]pyridin-3-amine]
IC50: 100 to 1000 nM

C=CC(=O)N1CCC[C@@H](CNc2n[nH]c3nccc(Oc4ccc(Oc5ccccc5)cc4)c23)C1 [compound 267, (S)-1-(3-((4-(4-phenoxyphenoxy)-1H-pyrazolo[3,4-b]pyridin-3-ylamino)methyl)piperidin-1-yl)prop-2-en-1-one]
IC50: < 100 nM
